# Article PMC8329280 (Scientific Reports, 2021)
# Non-standard residues stand in square brackets, D forms with d. Residues, ends and D or L forms follow the SMILES beside them. No end group written: not given here. Dopa = N[C@@H](Cc1ccc(O)c(O)c1)C(=O)O
# How the values were obtained:
# [1] = target: Endoprotease Glu-C from S. aureus V8 (E.C. 3.4.21.19) (Staphylococcus aureus, UniProt P0C1U8); details: 50 mM Tris–HCl pH 8.2, 37 °C, enzyme added for 4 h then same amount for 18 h; RP-HPLC, optical density at 214 nm
# Description: Endoprotease Glu-C from S. aureus V8 (E.C. 3.4.21.19) was provided from Sigma Aldrich (Saint Louis, USA). Digestion of DOPA5T-Ctl (12.5 µg) by endoprotease Glu-C (Sigma-Aldrich Chemie Saint Quentin Fallavier, France) (3.5 µg) was obtained for 18 h at 37 °C in 50 mM Tris–HCl pH 8.2 or PBS[28]. Enzyme (1.75 µg) was added for a digestion of 4 h and then the same amount was added for 18 h. The enzymatic digestion was stopped by addition of 25 µL of 0.1% (vol/vol) TFA in milliQ water. The fragments resulting from enzymatic digestion were isolated with a RP-HPLC with a Dionex HPLC system on a Vydac 208 TP C8 column (3 × 250 mm), and identified by Maldi-tof mass spectrometry, as previously reported for the characterization of the synthetic peptides.
# [2] = tested on: methicillin sensitive S. aureus (MSSA, strain 49775); assay type: cell-based, Staphylococcus aureus
# Description: (§1) Antibacterial assays were realized to the method previously reported[22],[25]. S. aureus strains were pre-cultured for 20 h in aerobic conditions at 37 °C in Mueller–Hinton Broth (MHB) medium (Becton–Dickinson Microbiology Company, Sparks, USA) (pH 7.4). Bacteria were suspended at absorbance of 0.001 at 620 nm in the MHB medium. Antibacterial activity was tested for 24 h incubation at 37 °C with shaking by measuring the inhibition of bacterial growth. Ten µl of final volumes (10–200 µg/mL) of synthetic peptides were incubated in microtitration plates with 90 µl of a mid-logarithmic phase culture of bacteria, with a starting absorbance of 0.001 at 620 nm. A mixture of Tetracycline (10 mg/L) and Cefotaxime (0.1 mg/L) were used as positive controls. Microbial growth was assessed by the increase of absorbance after 24 h incubation at 37 °C. The A620 nm value of control cultures growing in the absence of peptide and antibiotics was defined as 100% growth. A620 nm value with the antibiotics (Tetracycline and Cefotaxime) was taken as 100% inhibition. Absence of bacterial growth was verified by agar plate spreading. Each assay was performed in triplicates. Data were shown as mean + /− standard deviation of three independent experiments; p < 0.05.
# S. aureus V8 = assay type: cell-based, Staphylococcus aureus; details: V8, 24 h
# Description: as §1
# S. aureus 25923 (MSSA) = assay type: cell-based, Staphylococcus aureus; details: 25923, 24 h
# Description: as §1
# [3] = tested on: human gingival fibroblast (HGF-1); details: cited from earlier work
# [4] = tested on: human intestinal epithelial cell (caco-2); details: cited from earlier work
# [5] = tested on: proteases produced by Staphylococcus aureus; details: cited from earlier work
# Excerpt: In particular, CgA is an acidic glyco-phospho-protein stored in secretory vesicles of numerous nervous, neuroendocrine and immune cells. […] In a ...
# MRSA = assay type: cell-based, Staphylococcus aureus
# Description: (§2) The L- and D- forms of Ctl and also the corresponding L- and D-forms of the scramble peptides were tested by Atlangram (Nantes, France) against resistant Gram-negative bacteria (Escherichia coli, Klebsiella pneumoniae, Enterobacter cloacae, Enterobacter aerogenes, Serratia marcescens, Morganella morganii, Pseudomonas aeruginosa), MSSA, MRSA and yeast (C. albicans). The MICs were determined according to the CASFM/EUCAST 2018 (Comité de l’Antibiogramme de la Société Française de Microbiologie).
# MSSA = assay type: cell-based, Staphylococcus aureus
# Description: as §2
# Serratia marcescens = assay type: cell-based
# Description: as §2
# Candida albicans = assay type: cell-based
# Description: as §2
# Morganella morganii = assay type: cell-based
# Description: as §2
# Pseudomonas aeruginosa = assay type: cell-based
# Description: as §2
# Enterobacter cloacae = assay type: cell-based
# Description: as §2
# Citrobacter freundii = assay type: cell-based
# Enterobacter aerogenes = assay type: cell-based
# Description: as §2
# Escherichia coli = assay type: cell-based
# Description: as §2
# Klebsiella pneumoniae = assay type: cell-based
# Description: as §2
# Sequence of Endoprotease Glu-C from S. aureus V8 (E.C. 3.4.21.19) (P0C1U8 69-336): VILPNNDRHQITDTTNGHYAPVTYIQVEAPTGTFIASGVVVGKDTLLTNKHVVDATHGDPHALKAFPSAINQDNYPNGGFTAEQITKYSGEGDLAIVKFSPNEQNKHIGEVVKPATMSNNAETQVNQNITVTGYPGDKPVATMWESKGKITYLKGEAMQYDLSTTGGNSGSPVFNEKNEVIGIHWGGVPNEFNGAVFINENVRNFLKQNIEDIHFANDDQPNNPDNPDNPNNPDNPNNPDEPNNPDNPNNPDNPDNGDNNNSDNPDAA
Molecule,Ctl and its oxidized form released after Glu-C digestion [1],proteolysis by Glu-C endoprotease [1],"IC50 ([2]; methicillin sensitive (, strain 49775, 24 h))",IC50 (S. aureus V8),IC50 (S. aureus 25923 (MSSA)),toxicity for HGF-1 [3],toxicity for caco-2 [4],degradation by the proteases produced by Staphylococcus aureus [5],"MIC MSSA ([2]; methicillin sensitive (, strain 49775, 20 h))",MIC (MRSA),MIC (MSSA),MIC (Serratia marcescens),MIC (Candida albicans),MIC (Morganella morganii),MIC (Pseudomonas aeruginosa),MIC (Enterobacter cloacae),MIC (Citrobacter freundii),MIC (Enterobacter aerogenes),MIC (Escherichia coli),MIC (Klebsiella pneumoniae)
CSCC[C@H](NC(=O)[C@H](CO)NC(=O)[C@H](CCCNC(=N)N)NC(=O)[C@H](CCC(=O)O)NC(=O)CNC(=O)CNC(=O)[C@H](CCCNC(=N)N)NC(=O)[C@H](CC(C)C)NC(=O)[C@@H](NC(=O)[C@H](Cc1ccc(O)c(O)c1)NC(=O)[C@H](CCCCN)NC(=O)[C@H](Cc1ccc(O)c(O)c1)NC(=O)[C@H](CCCCN)NC(=O)[C@@H](N)Cc1ccc(O)c(O)c1)[C@@H](C)O)C(=O)N[C@@H](CCCNC(=N)N)C(=O)N[C@@H](CC(C)C)C(=O)N[C@@H](CO)C(=O)N[C@@H](Cc1ccccc1)C(=O)N[C@@H](CCCNC(=N)N)C(=O)N[C@@H](C)C(=O)N[C@@H](CCCNC(=N)N)C(=O)NCC(=O)N[C@@H](Cc1ccc(O)cc1)C(=O)NCC(=O)N[C@@H](Cc1ccccc1)C(=O)N[C@@H](CCCNC(=N)N)C(=O)O [DOPA5T-Ctl] (H-[Dopa]K[Dopa]K[Dopa]TLRGGERSMRLSFRARGYGFR-OH),76%,full proteolysis,45 µM,65 µM,20 µM,,,,,,,,,,,,,,,
"RSMRLSFRARGYGFR [Ctl, Cateslytin]",,,,,,not toxic,not toxic,resistant to degradation,93.0 µg/mL,> 128 µg/mL,> 128 µg/mL,> 128 µg/mL,512 µg/mL,> 128 µg/mL,> 128 µg/mL,> 128 µg/mL,,,,
"FMRLRYRSSAFGGRR [Control L, reference compound]",,,,,,,,,,> 128 µg/mL,> 128 µg/mL,> 128 µg/mL,512 µg/mL,> 128 µg/mL,> 128 µg/mL,> 128 µg/mL,> 128 µg/mL,> 128 µg/mL,> 128 µg/mL,> 128 µg/mL
